From ChEMBL document CHEMBL1154277, “Discovery of N-substituted pyridinones as potent and selective inhibitors of p38 kinase” (Bioorg Med Chem Lett, 2009)

Tests used:
[1] = Inhibition of SRC N1 at 10 uM
[2] = target: Casein kinase I isoform epsilon (Homo sapiens) (UniProt P49674); test: Inhibition of CSNK1E at 10 uM
[3] = target: Aurora kinase B (Homo sapiens) (UniProt Q96GD4); test: Inhibition of Aurora B at 10 uM
[4] = target: Tyrosine-protein kinase Lyn (Homo sapiens) (UniProt P07948); test: Inhibition of LYN B at 10 uM
[5] = target: Cyclin-dependent kinase 2/cyclin A (Homo sapiens) (UniProt P24941+P20248+P78396); test: Inhibition of CDK2/cyclinA at 10 uM; type: protein-complex assay
[6] = target: Serine/threonine-protein kinase Sgk3 (Homo sapiens) (UniProt Q96BR1); test: Inhibition of SGK3 at 10 uM
Serine/threonine-protein kinase Sgk3 (Homo sapiens), sequence (Q96BR1 whole entry): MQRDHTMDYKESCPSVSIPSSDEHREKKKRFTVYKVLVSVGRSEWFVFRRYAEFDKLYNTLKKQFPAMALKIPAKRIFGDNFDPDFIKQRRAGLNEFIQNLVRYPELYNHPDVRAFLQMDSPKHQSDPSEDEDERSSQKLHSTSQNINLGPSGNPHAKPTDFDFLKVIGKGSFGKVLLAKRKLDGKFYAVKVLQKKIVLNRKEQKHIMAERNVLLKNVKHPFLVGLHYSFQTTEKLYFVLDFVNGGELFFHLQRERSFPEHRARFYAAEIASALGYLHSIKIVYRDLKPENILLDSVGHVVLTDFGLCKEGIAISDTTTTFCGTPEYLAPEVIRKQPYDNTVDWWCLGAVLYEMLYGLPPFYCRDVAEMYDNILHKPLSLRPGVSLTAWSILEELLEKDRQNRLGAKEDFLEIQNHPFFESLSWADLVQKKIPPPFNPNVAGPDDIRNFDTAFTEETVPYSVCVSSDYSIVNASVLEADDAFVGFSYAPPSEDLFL

[7] = target: AMP-activated protein kinase, AMPK (Homo sapiens) (UniProt P54646+O43741+P54619+Q9UGJ0+Q9Y478+Q13131+Q9UGI9); test: Inhibition of AMPK alpha-2/beta-1/gamma-1 at 10 uM; type: protein-complex assay
[8] = test system: Platelet-derived growth factor receptor alpha (Homo sapiens), P16234 [T674I]; test: Inhibition of PDGFRalpha T674I (mutant) at 10 uM
[9] = target: RAC-beta serine/threonine-protein kinase (Homo sapiens) (UniProt P31751); test: Inhibition of AKT2 at 10 uM
[10] = target: Ephrin type-A receptor 8 (Homo sapiens) (UniProt P29322); test: Inhibition of EPHA8 at 10 uM
[11] = target: Dual specificity protein kinase CLK3 (Homo sapiens) (UniProt P49761); test: Inhibition of CLK3 at 10 uM
[12] = target: Aurora kinase C (Homo sapiens) (UniProt Q9UQB9); test: Inhibition of Aurora C at 10 uM
[13] = target: Inhibitor of nuclear factor kappa-B kinase subunit alpha (Homo sapiens) (UniProt O15111); test: Inhibition of IKKalpha at 10 uM
Inhibitor of nuclear factor kappa-B kinase subunit alpha (Homo sapiens), sequence (O15111 whole entry): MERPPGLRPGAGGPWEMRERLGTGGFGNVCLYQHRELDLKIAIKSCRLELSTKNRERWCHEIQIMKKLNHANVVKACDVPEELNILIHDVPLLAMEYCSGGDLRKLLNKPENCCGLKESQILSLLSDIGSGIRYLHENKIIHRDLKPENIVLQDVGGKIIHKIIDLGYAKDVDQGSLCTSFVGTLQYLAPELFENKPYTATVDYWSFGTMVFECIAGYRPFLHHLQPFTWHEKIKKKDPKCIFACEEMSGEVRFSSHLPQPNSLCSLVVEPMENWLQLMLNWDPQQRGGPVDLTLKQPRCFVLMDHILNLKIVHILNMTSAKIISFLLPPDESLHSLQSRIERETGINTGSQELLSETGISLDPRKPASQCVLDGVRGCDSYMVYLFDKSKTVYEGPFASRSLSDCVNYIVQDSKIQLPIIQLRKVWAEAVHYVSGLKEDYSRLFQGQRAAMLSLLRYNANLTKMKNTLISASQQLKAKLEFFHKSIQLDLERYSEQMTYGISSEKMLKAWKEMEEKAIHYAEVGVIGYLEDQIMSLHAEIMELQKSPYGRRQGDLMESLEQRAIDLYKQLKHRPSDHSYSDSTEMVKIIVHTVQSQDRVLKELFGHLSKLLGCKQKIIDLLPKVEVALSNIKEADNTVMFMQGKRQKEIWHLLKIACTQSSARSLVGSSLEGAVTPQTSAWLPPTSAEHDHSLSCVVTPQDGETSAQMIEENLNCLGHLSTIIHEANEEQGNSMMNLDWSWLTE

[14] = target: Cyclin-dependent kinase 5/CDK5 activator 1 (Homo sapiens) (UniProt Q00535+Q15078); test: Inhibition of CDK5/p25 at 10 uM; type: protein-complex assay
[15] = target: Dual specificity tyrosine-phosphorylation-regulated kinase 3 (Homo sapiens) (UniProt O43781); test: Inhibition of DYRK3 at 10 uM
[16] = test system: Proto-oncogene tyrosine-protein kinase receptor Ret (Homo sapiens), P07949 [V804L]; test: Inhibition of RET V804L (mutant) at 10 uM
Proto-oncogene tyrosine-protein kinase receptor Ret (Homo sapiens), P07949 [V804L], sequence (P07949 whole entry V804L): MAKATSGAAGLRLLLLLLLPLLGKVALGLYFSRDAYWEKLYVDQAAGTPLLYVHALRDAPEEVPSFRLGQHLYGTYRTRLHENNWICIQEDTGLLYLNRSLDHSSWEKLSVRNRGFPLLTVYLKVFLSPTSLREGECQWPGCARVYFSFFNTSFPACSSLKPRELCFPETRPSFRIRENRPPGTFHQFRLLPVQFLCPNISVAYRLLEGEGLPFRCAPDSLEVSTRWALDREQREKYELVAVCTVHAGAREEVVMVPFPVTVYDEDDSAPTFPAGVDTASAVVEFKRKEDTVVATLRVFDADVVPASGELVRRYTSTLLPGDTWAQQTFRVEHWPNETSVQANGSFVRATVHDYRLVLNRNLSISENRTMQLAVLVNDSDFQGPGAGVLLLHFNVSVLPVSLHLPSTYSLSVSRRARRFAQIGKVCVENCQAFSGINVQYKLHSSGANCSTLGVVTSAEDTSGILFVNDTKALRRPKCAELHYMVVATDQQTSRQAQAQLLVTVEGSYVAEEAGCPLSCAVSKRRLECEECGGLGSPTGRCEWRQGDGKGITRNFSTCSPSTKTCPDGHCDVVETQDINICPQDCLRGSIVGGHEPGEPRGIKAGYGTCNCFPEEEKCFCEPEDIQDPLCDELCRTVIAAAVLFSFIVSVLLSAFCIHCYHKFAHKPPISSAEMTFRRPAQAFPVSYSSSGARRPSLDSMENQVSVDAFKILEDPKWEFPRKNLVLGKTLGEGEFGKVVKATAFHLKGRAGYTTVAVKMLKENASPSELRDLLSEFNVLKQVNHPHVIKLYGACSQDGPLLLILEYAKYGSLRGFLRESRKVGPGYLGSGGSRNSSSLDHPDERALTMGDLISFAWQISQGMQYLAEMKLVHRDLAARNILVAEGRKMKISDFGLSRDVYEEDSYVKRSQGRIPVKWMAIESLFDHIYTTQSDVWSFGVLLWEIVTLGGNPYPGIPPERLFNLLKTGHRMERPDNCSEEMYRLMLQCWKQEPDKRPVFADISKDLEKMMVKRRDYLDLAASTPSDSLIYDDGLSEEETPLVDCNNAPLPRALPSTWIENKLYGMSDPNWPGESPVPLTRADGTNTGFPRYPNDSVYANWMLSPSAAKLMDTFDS

[17] = target: RAC-alpha serine/threonine-protein kinase (Homo sapiens) (UniProt P31749); test: Inhibition of AKT1 at 10 uM
[18] = target: Serine/threonine-protein kinase MRCK beta (Homo sapiens) (UniProt Q9Y5S2); test: Inhibition of MRCKbeta at 10 uM
[19] = target: Mitogen-activated protein kinase 13 (Homo sapiens) (UniProt O15264); test: Inhibition of p38delta at 10 uM
[20] = target: Ephrin type-B receptor 4 (Homo sapiens) (UniProt P54760); test: Inhibition of EPHB4 at 10 uM
Ephrin type-B receptor 4 (Homo sapiens), sequence (P54760 whole entry, canonical isoform): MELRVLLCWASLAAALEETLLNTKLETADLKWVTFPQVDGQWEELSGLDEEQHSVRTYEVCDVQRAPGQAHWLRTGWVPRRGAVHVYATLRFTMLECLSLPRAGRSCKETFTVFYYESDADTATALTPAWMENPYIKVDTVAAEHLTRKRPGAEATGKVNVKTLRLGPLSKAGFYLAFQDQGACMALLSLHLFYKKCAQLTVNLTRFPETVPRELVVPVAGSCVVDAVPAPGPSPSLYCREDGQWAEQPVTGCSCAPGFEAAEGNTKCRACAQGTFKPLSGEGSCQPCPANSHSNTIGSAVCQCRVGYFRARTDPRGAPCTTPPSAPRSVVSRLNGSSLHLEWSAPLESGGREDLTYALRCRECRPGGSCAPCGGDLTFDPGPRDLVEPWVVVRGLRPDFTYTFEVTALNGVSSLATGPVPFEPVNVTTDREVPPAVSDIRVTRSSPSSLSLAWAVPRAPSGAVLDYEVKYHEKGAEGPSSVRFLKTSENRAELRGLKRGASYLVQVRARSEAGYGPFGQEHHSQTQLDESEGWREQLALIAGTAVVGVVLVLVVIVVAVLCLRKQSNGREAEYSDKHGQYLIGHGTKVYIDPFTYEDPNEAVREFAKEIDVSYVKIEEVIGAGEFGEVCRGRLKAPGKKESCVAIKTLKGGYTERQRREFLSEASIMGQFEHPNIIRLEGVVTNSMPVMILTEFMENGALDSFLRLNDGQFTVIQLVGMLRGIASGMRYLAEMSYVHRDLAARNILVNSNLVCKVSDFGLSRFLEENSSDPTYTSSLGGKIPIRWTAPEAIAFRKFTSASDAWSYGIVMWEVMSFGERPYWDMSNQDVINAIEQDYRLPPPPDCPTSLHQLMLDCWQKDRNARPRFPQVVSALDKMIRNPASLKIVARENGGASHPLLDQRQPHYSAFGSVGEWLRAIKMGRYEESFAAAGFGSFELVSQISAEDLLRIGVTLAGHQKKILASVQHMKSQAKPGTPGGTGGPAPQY

[21] = target: Casein kinase I isoform alpha (Homo sapiens) (UniProt P48729); test: Inhibition of CSNK1A1 at 10 uM
[22] = target: Macrophage colony-stimulating factor 1 receptor (Homo sapiens) (UniProt P07333); test: Inhibition of CSF1R at 10 uM
[23] = target: Eukaryotic elongation factor 2 kinase (Homo sapiens) (UniProt O00418); test: Inhibition of EEF2K at 10 uM
[24] = target: Protein kinase C alpha type (Homo sapiens) (UniProt P17252); test: Inhibition of PKCalpha at 10 uM
[25] = Inhibition of PKA at 10 uM
[26] = target: Ephrin type-A receptor 1 (Homo sapiens) (UniProt P21709); test: Inhibition of EPHA1 at 10 uM
[27] = target: Serine/threonine-protein kinase mTOR (Homo sapiens) (UniProt P42345); test: Inhibition of mTOR at 10 uM
[28] = target: G protein-coupled receptor kinase 6 (Homo sapiens) (UniProt P43250); test: Inhibition of GRK6 at 10 uM
[29] = target: Vascular endothelial growth factor receptor 1 (Homo sapiens) (UniProt P17948); test: Inhibition of FLT1 at 10 uM
[30] = Selectivity ratio of p38alpha over p38beta
[31] = target: Serine/threonine-protein kinase PAK 1 (Homo sapiens) (UniProt Q13153); test: Inhibition of PAK1 at 10 uM
[32] = test system: Epidermal growth factor receptor (Homo sapiens), P00533 [T790M]; test: Inhibition of EGFR T790M (mutant) at 10 uM; type: protein assay
[33] = target: Dual specificity mitogen-activated protein kinase kinase 2 (Homo sapiens) (UniProt P36507); test: Inhibition of MEK2 at 10 uM
[34] = target: Casein kinase II subunit alpha (Homo sapiens) (UniProt P68400); test: Inhibition of CK2alpha1 at 10 uM
Casein kinase II subunit alpha (Homo sapiens), sequence (P68400 whole entry, looked up): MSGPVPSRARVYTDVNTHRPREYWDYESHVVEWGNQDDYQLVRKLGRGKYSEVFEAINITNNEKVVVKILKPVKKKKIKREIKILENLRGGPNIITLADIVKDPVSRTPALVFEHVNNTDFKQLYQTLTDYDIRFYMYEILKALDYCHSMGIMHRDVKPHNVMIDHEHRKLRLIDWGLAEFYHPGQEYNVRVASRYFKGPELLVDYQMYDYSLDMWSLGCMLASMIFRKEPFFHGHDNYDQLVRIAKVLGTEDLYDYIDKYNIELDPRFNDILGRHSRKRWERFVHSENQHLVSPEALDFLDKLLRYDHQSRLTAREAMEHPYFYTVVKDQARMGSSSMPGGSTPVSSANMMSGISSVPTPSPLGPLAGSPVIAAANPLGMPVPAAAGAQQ

[35] = target: Maternal embryonic leucine zipper kinase (Homo sapiens) (UniProt Q14680); test: Inhibition of MELK at 10 uM
[36] = target: G protein-coupled receptor kinase 4 (Homo sapiens) (UniProt P32298); test: Inhibition of GRK4 at 10 uM
[37] = target: Tyrosine-protein kinase JAK1 (Homo sapiens) (UniProt P23458); test: Inhibition of JAK1 at 10 uM
[38] = target: NUAK family SNF1-like kinase 1 (Homo sapiens) (UniProt O60285); test: Inhibition of NUAK1 at 10 uM
NUAK family SNF1-like kinase 1 (Homo sapiens), sequence (O60285 whole entry): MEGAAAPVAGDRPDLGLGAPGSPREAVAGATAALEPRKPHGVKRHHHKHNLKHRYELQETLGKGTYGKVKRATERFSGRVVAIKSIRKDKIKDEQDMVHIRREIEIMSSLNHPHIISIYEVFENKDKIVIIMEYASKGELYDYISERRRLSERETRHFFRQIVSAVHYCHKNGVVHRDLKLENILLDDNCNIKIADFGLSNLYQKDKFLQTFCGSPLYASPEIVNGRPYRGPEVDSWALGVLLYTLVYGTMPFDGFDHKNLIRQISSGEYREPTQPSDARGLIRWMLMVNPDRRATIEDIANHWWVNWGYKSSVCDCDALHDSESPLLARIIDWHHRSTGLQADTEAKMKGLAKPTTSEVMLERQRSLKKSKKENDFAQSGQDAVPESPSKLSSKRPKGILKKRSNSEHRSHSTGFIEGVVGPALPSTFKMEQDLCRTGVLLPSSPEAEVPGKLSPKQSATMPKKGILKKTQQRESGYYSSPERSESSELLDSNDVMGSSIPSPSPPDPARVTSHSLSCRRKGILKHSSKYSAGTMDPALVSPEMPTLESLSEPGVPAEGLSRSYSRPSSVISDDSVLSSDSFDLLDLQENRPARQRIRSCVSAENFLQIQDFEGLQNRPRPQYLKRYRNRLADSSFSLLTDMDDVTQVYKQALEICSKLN

[39] = target: Serine/threonine-protein kinase PAK 4 (Homo sapiens) (UniProt O96013); test: Inhibition of PAK4 at 10 uM
[40] = target: Non-receptor tyrosine-protein kinase TYK2 (Homo sapiens) (UniProt P29597); test: Inhibition of TYK2 at 10 uM
[41] = test system: Tyrosine-protein kinase ABL1 (Homo sapiens), P00519 [E255K]; test: Inhibition of ABL1 E255K (mutant) at 10 uM
[42] = target: Serine/threonine-protein kinase MARK1 (Homo sapiens) (UniProt Q9P0L2); test: Inhibition of MARK1 at 10 uM
[43] = target: NT-3 growth factor receptor (Homo sapiens) (UniProt Q16288); test: Inhibition of TRKC at 10 uM
[44] = target: Tyrosine-protein kinase HCK (Homo sapiens) (UniProt P08631); test: Inhibition of HCK at 10 uM
[45] = target: Serine/threonine-protein kinase Chk2 (Homo sapiens) (UniProt O96017); test: Inhibition of CHK2 at 10 uM
[46] = target: Protein kinase C iota type (Homo sapiens) (UniProt P41743); test: Inhibition of PKCiota at 10 uM
[47] = target: MAP kinase-activated protein kinase 5 (Homo sapiens) (UniProt Q8IW41); test: Inhibition of PRAK at 10 uM
[48] = target: Activin receptor type-1B (Homo sapiens) (UniProt P36896); test: Inhibition of ALK4 at 10 uM

Casein kinase I isoform epsilon (Homo sapiens), sequence (P49674 whole entry, looked up, canonical isoform): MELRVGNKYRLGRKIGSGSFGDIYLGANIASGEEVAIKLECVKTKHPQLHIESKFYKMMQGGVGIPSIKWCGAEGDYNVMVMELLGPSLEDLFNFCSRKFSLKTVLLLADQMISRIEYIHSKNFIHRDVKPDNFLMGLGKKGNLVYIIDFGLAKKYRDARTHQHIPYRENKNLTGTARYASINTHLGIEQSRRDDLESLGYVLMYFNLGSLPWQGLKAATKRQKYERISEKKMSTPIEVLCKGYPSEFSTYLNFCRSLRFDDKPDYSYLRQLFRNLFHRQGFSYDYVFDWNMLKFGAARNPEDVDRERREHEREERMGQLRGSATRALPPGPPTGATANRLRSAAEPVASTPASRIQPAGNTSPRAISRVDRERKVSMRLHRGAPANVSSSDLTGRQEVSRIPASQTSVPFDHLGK

For Cc1cc(OCc2ccc(F)cc2F)c(Br)c(=O)n1Cc1ccc(CN(C)C)cc1, the inhibition [1] was under 50%, the inhibition [2] was under 50% and the inhibition [3] was under 50%. The inhibition [4] was under 50%, the inhibition [5] was under 50% and the inhibition [6] was under 50%. For the same molecule, the inhibition [7] was under 50%, the inhibition [8] was under 50% and the inhibition [9] was under 50%. The inhibition [10] was under 50%, the inhibition [11] was under 50% and the inhibition [12] was under 50%. The inhibition [13] was under 50%, the inhibition [14] was under 50% and the inhibition [15] was under 50%. For the same molecule, the inhibition [16] was under 50%, the inhibition [17] was under 50% and the inhibition [18] was under 50%. It also gave an inhibition [19] of under 50%, an inhibition [20] of under 50% and an inhibition [21] of under 50%. The inhibition [22] was under 50%, the inhibition [23] was under 50% and the inhibition [24] was under 50%. The inhibition [25] was under 50%, the inhibition [26] was under 50% and the inhibition [27] was under 50%. The inhibition [28] was under 50%, the inhibition [29] was under 50% and the Selectivity ratio [30] was 5. It also gave an inhibition [31] of under 50%, an inhibition [32] of under 50% and an inhibition [33] of under 50%. It also gave an inhibition [34] of under 50%, an inhibition [35] of under 50% and an inhibition [36] of under 50%. For the same molecule, the inhibition [37] was under 50%, the inhibition [38] was under 50% and the inhibition [39] was under 50%. It also gave an inhibition [40] of under 50%, an inhibition [41] of under 50% and an inhibition [42] of under 50%. The inhibition [43] was under 50%, the inhibition [44] was under 50% and the inhibition [45] was under 50%. The inhibition [46] was under 50%, the inhibition [47] was under 50% and the inhibition [48] was under 50%.
